Reference: ChEMBL document CHEMBL1795334, “Towards predictive inhibitor design for the EGFR autophosphorylation activity” (Eur J Med Chem, 2008)

Biological target: Epidermal growth factor receptor (Homo sapiens, UniProt P00533)
Experiment: Inhibition autophosphorylation of EGFR in human DiFi cells after 2 hrs by ELISA
Format: cell-based

Sequence of Epidermal growth factor receptor (P00533 whole entry): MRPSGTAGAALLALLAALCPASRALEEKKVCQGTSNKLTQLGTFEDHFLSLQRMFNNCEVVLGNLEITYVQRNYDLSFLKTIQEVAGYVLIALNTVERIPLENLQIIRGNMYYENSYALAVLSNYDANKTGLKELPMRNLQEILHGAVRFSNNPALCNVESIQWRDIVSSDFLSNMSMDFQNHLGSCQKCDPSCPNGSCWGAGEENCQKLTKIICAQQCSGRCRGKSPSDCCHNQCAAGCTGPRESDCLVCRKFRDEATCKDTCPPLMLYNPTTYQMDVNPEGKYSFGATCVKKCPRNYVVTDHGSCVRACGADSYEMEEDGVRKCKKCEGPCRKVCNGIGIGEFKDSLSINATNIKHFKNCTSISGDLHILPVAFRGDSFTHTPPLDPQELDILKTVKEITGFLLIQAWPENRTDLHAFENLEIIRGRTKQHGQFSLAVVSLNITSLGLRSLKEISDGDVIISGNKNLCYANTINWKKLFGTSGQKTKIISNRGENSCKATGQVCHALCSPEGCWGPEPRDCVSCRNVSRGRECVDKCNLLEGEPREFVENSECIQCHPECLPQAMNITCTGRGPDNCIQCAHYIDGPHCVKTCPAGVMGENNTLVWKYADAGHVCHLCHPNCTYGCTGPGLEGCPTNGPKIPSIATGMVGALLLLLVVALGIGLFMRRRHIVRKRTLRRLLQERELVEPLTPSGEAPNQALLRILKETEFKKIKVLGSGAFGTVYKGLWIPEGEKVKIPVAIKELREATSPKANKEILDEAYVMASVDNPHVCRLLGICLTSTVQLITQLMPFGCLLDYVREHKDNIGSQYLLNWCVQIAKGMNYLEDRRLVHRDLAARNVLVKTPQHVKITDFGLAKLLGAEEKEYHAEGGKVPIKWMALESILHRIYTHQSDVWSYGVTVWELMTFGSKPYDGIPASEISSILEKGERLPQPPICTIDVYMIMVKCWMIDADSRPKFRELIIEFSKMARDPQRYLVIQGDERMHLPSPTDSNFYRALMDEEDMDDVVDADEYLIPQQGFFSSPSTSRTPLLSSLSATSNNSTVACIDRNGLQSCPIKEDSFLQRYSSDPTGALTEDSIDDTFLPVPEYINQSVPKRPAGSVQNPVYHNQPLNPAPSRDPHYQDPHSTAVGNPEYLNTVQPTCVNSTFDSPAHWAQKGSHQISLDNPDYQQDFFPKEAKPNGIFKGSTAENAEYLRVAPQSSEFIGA

Row | Compound | IC50
1 | CCOc1cc2ncc(C#N)c(Nc3cccc(Br)c3)c2cc1OCC | 0.417 µM
2 | COc1cc2c(C#N)cnc(Nc3cccc(Cl)c3)c2cc1OC | 89.1 µM
3 | COc1cc2ncc(C=O)c(Nc3cccc(Br)c3)c2cc1OC | 3.39 µM
4 | COc1cc2ncc(C#N)c(Nc3ccc(C)c(Cl)c3)c2cc1OC | 1.48 µM
5 | COc1cc2ncc(C#N)c(Nc3ccccc3Br)c2cc1OC | 4.17 µM
6 | COc1cc2ncc(C#N)c(Nc3ccc(Br)c(C)c3)c2cc1OC | 0.617 µM
7 | CCOc1cc2c(Nc3cccc(Br)c3)c(C#N)cnc2cc1OC | 33.1 µM
8 | COc1cc2ncc(C#N)c(Nc3ccc(O)c(Cl)c3)c2cc1OC | 9.12 µM
9 | COCOc1cc2ncc(C#N)c(Nc3cccc(Br)c3)c2cc1OCOC | 6.76 µM
10 | COc1cc2ncc(C#N)c(Nc3ccc(C)c(Br)c3)c2cc1OC | 1.78 µM
11 | CCOc1cc2ncc(C#N)c(Nc3cccc(Br)c3)c2cc1OC | 21.4 µM
12 | COc1cc2ncc(C#N)c(Nc3ccc(Cl)cc3F)c2cc1OC | 13.8 µM
13 | COc1cc2ncc(C#N)c(Nc3cccc(Br)c3C)c2cc1OC | 0.832 µM
14 | CCOc1cc2ncc(C#N)c(Nc3ccc(F)c(Cl)c3)c2cc1OCC | 0.977 µM
15 | COc1cc2ncc(C#N)c(Nc3ccc(F)cc3)c2cc1OC | 47.9 µM
16 | COc1cc2ncc(C(=O)O)c(Nc3cccc(Br)c3)c2cc1OC | 33.9 µM

Continued, values first:

Row | IC50 | Compound
17 | 0.182 µM | COc1cc2ncc(C#N)c(Nc3cccc(Cl)c3)c2cc1OC
18 | 61.7 µM | COc1cc2ncc(C#N)c(Nc3cccc(C(C)C)c3)c2cc1OC
19 | 0.813 µM | COc1cc2ncc(C#N)c(Nc3cccc(N)c3)c2cc1OC
20 | 6.31 µM | COc1cc2ncc(C#N)c(Nc3cccc(O)c3)c2cc1OC
21 | 14.1 µM | COc1cc2ncc(C#N)c(Nc3cccc(C#N)c3)c2cc1OC
22 | 0.759 µM | COc1cc2ncc(C#N)c(Nc3cccc(SC)c3)c2cc1OC
23 | 7.76 µM | COc1cc2ncc(C#N)c(Nc3cccc(C(N)=O)c3)c2cc1OC
24 | 69.2 µM | COc1cc2ncc(C#N)c(Nc3cccc(NC(C)=O)c3)c2cc1OC
